US6455555B1, “Anti-HIV infection agents and method for treating HIV infection” (Kabushiki Kaisha Hayashibara Seibutsu Kagaku Kenkyujo, priority 2001, dated 2002)
“Also recorded” adds a separate entry of the source. Like-named read-outs stand apart in the source and are kept apart here.

Legend:
HIV (HTLV-IIIB) = assay: microbe, parasite or virus in culture; type: cell-based; settings: for suppression of HIV replication (in words): at the tested concentrations (20-500 μM)
Protocol: To examine the effect on HIV infected cell, MT-4 cells (number of cells at the start of culture 1×10^4/well), that underwent anti-HIV assay, were infected with an HIV (HTLV-IIIB, 200 CCID50/well), cultured at 37° C. for 4 days, and determined for the inhibitory effect on HIV replication, according to the method by Pauels, R. et al., in J. Virol. Methods, 16, 171-185 (1987). Suramin was used as a control.

[1] = cited from earlier work
[2] = system: patient suffering from ARC (HIV infection); assay: Clinical Experiment 1: formulation 1 tablets with active ingredient A given to one ARC patient; type: in vivo, human
Protocol: (§1) The clinical experiments using the agent for anti-HIV infection of the present invention are explained in the following. The clinical experiments described below were conducted in Thailand without informing the patients of the compound names, chemical structures, etc. of the photosensitizing dyes used as the active ingredient.
The agent for anti-HIV infection of the present invention was administered to a patient suffering from ARC. They had been diagnosed with HIV infection five years before and received administration of AZT/ddI/RTV for 14 months.
His bronchial asthma, a symptom of ARC, was also cured.

[3] = system: patients suffering from ARC or AIDS (HIV infection); assay: Clinical Experiment 2: formulation 1 tablets with active ingredient A given to seven patients with ARC or AIDS; type: in vivo, human
Protocol: as §1
Seven patients suffering from ARC or AIDS were given the agent for anti-HIV infection of the present invention of formulation 1 containing the active ingredient A. Their medical history before treatment was as follows:
Along therewith, their appetite increased, rash, one of the symptoms of ARC, decreased, hemorrhoid was cured, and insomnia was ameliorated.

[4] = 20 μM, MT-4 cells, HTLV-IIIB 200 CCID50/well, 4 days at 37° C.
[5] = 100 μM, MT-4 cells, HTLV-IIIB 200 CCID50/well, 4 days at 37° C.
[6] = 500 μM, MT-4 cells, HTLV-IIIB 200 CCID50/well, 4 days at 37° C.
[7] = after a further 16 weeks, daily dose 1000 μg, following 8 weeks at 500 μg
[8] = 8 weeks, 500 μg/day, one patient per line

CCCCCCCN1C(C)=CSC1=CC=C(C=Cc1scc(C)[n+]1CCCCCCC)c1scc(C)[n+]1CCCCCCC.[I-].[I-] [Active ingredient B]
Inhibition (%) of HIV replication (HIV (HTLV-IIIB); [4]): 2%
Inhibition (%) of HIV replication (HIV (HTLV-IIIB); [5]): 1%
Inhibition (%) of HIV replication (HIV (HTLV-IIIB); [6]): 2%
suppression of HIV replication (in words) (HIV (HTLV-IIIB)): no anti-virus activity to suppress reproduction of HIV; also recorded: did not suppress the replication of HIV
LD50 ([1]; intraperitoneal administration): 54 mg/kg
LD50 ([1]; oral administration): 1500 mg/kg

CCN1C=CC(=CC=C(C=Cc2cc[n+](CC)c3ccccc23)c2cc[n+](CC)c3ccccc23)c2ccccc21.[I-].[I-] [Active ingredient A]
Inhibition (%) of HIV replication (HIV (HTLV-IIIB); [4]): 1%
Inhibition (%) of HIV replication (HIV (HTLV-IIIB); [5]): 2%
Inhibition (%) of HIV replication (HIV (HTLV-IIIB); [6]): 1%
suppression of HIV replication (in words) (HIV (HTLV-IIIB); listed as active ingredients A): no anti-virus activity to suppress reproduction of HIV; also recorded: did not suppress the replication of HIV
other improvement (in words) ([2]; after 8 weeks, daily dose 500 μg): increased appetite and increased pectoral muscle
body weight ([2]; after 8 weeks, daily dose 500 μg, 55.6 kg before administration): 56.9 kg
CD4 count ([2]; after 8 weeks, daily dose 500 μg, 121/mm^3 before administration, person): 181 /mm^3
bronchial asthma, a symptom of ARC ([2]; after a further 16 weeks, daily dose 1000 μg): cured
CD4 count [2, 7]: 192 /mm^3
body weight [2, 7]: 57.1 kg
side effects such as toxic state ([1]; oral administration at 4 g/kg): does not cause any side effects
Improvement (Symptoms of ARC etc.) [3, 8]: Increased appetite; also recorded: Amelioration of insomnia; also recorded: Cure of hemorrhoids; also recorded: Decrease of rash
Side effects [3, 8]: None
overall clinical effect (in words) ([3]; HIV-infected patients): most of the patients showed an increase in the CD4 count and in the body weight

Cc1ccc(C(=O)Nc2ccc(S(=O)(=O)O)c3cc(S(=O)(=O)O)cc(S(=O)(=O)O)c23)cc1NC(=O)c1cccc(NC(=O)Nc2cccc(C(=O)Nc3cc(C(=O)Nc4ccc(S(=O)(=O)O)c5cc(S(=O)(=O)O)cc(S(=O)(=O)O)c45)ccc3C)c2)c1 [Suramin, reference compound]
inhibition at 0.8 µM (HIV (HTLV-IIIB); Human immunodeficiency virus 1, MT4, 96 h, 0.8 μM, MT-4 cells, HTLV-IIIB 200 CCID50/well, 4 days at 37° C., read-out: Inhibition (%) of HIV replication): 2%
inhibition at 4 µM (HIV (HTLV-IIIB); Human immunodeficiency virus 1, MT4, 96 h, 4 μM, MT-4 cells, HTLV-IIIB 200 CCID50/well, 4 days at 37° C., read-out: Inhibition (%) of HIV replication): 10%
inhibition at 20 µM (HIV (HTLV-IIIB); Human immunodeficiency virus 1, MT4, 96 h, 20 μM, MT-4 cells, HTLV-IIIB 200 CCID50/well, 4 days at 37° C., read-out: Inhibition (%) of HIV replication): 100%
inhibition at 100 µM (HIV (HTLV-IIIB); Human immunodeficiency virus 1, MT4, 96 h, 100 μM, MT-4 cells, HTLV-IIIB 200 CCID50/well, 4 days at 37° C., read-out: Inhibition (%) of HIV replication): 100%
